The source of these data is ChEMBL document CHEMBL1128905, “Synthesis and biological activity of 5-heteroaryl benzodiazepines: analogues of YM022” (Bioorg Med Chem Lett, 1996).

Test [1] deals with Rattus norvegicus. The experiment in a line: Compound was evaluated for in vivo inhibition of pentagastrin induced gastric acid secretion in rats by 50% after iv administration. It is filed as functional. Conditions: Stomach.
The target of test [2] is T1, Cholecystokinin receptor type A (Rattus norvegicus, UniProt P30551).
T1 sequence (P30551 whole entry): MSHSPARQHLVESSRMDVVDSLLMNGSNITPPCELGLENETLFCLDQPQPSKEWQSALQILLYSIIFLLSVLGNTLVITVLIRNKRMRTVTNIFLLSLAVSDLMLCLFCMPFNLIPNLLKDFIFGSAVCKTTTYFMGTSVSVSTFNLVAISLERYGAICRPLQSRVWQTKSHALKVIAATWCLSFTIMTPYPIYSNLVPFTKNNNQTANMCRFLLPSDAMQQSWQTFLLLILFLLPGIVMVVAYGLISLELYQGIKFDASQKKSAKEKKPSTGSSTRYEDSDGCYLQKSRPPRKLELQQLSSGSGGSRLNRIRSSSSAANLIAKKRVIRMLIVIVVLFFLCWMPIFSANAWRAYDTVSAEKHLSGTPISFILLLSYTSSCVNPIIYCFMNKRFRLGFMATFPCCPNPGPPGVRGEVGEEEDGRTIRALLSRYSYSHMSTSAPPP
The experiment in a line: Binding affinity towards Cholecystokinin type A receptor from rat pancreas using [I125]-L-364,718 as the radioligand.

Test [3] addresses T2, Gastrin/cholecystokinin type B receptor (Rattus norvegicus, UniProt P30553).
T2 sequence (P30553 whole entry): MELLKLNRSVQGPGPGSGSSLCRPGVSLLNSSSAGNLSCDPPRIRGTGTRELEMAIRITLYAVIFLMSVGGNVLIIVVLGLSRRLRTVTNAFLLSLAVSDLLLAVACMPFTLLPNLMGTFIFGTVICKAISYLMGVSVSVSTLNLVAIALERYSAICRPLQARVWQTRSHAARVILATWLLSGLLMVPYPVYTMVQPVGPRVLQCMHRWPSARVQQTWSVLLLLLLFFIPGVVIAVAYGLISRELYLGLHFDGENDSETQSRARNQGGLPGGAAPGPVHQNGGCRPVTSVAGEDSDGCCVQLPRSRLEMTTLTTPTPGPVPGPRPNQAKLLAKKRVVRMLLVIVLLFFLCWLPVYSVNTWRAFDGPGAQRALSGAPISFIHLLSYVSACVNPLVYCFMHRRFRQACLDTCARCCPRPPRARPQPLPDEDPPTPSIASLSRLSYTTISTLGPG
As to the kind of experiment: Binding affinity towards gastrin/Cholecystokinin type B receptor from rat brain using [125I]CCK-8 as the radioligand.

For test [4], the system named is Rattus norvegicus. As to the kind of experiment: Compound was evaluated for in vivo inhibition of pentagastrin induced gastric acid secretion in rats after iv administration at dose of 0.1 umol/kg. It is filed as functional. Conditions: Stomach.

A word on the ED50: it is the dose that gives a 50% effect, or the effect in half of the subjects. As a reminder, the IC50 is the concentration that gives 50% inhibition. Compound `Cc1cccc(NC(=O)NC2N=C(c3ccccn3)c3ccccc3N(CC(=O)c3ccccc3C)C2=O)c1` (centres undefined) had an ED50 in the test on Rattus norvegicus [1] of 0.0167 µmol/kg. Further, the half-maximal inhibitory concentration (IC50) in test [2] was 980 nM; in test [3], 0.13 nM.
As usually defined, the inhibition in vivo is the drop in the measured response relative to a control, in per cent. The low end stands for a response near the control, the high end for a response far below the control. As for `Cc1cccc(NC(=O)NC2N=C(c3nccn3C)c3ccccc3N(CC(=O)C(C)(C)C)C2=O)c1` (centres undefined), the inhibition in vivo at 0.1 µmol/kg with Rattus norvegicus [4] was determined as 49%. In addition, the IC50 in test [2] was found to be 844 nM; in test [3], 4.52 nM.
With `Cc1cccc(NC(=O)NC2N=C(c3cnccn3)c3ccccc3N(CC(=O)C(C)(C)C)C2=O)c1` (centres undefined), in the test with Rattus norvegicus [4], the inhibition in vivo at 0.1 µmol/kg was 55%. The IC50 in test [2] worked out at 1360 nM; in test [3], 0.88 nM.
The compound `Cc1cccc(NC(=O)NC2N=C(c3ccccn3)c3ccccc3N(CC(=O)C(C)(C)C)C2=O)c1` (centres undefined) showed an ED50 in the test with Rattus norvegicus [1] of 0.016 µmol/kg. For the same compound, the IC50 was determined as 470 nM in test [2] and 0.44 nM in test [3].
Take `Cc1cccc(NC(=O)NC2N=C(c3ccccc3)c3ccccc3N(CC(=O)c3ccccc3C)C2=O)c1` (centres undefined): the IC50 in test [2] turned out to be 146 nM; in test [3], 0.11 nM.
Turning to `Cc1cccc(NCNC2N=C(c3ccn[nH]3)c3ccccc3N(CC(=O)C(C)(C)C)C2=O)c1` (centres undefined), in the test with Rattus norvegicus [4], the inhibition in vivo at 0.1 µmol/kg amounted to 18%. The IC50 is 105 nM in test [2] and above 100 nM in test [3].
`Cc1cccc(NC(=O)NC2N=C(c3cccnc3)c3ccccc3N(CC(=O)C3CCCC3)C2=O)c1` (centres undefined) displayed an inhibition in vivo at 0.1 µmol/kg in the test on Rattus norvegicus [4] of 34%. Further, the half-inhibitory concentration (IC50) in test [2] was 80 nM; in test [3], 1.6 nM.
Compound `Cc1cccc(NC(=O)NC2N=C(c3ccncc3)c3ccccc3N(CC(=O)C3CCCC3)C2=O)c1` (centres undefined) showed an inhibition in vivo at 0.1 µmol/kg in the test with Rattus norvegicus [4] of 15%. For the same compound, the IC50 in test [2] is above 10000 nM; in test [3] it was 48 nM.
For `Cc1cccc(NC(=O)NC2N=C(c3ccccn3)c3ccccc3N(CC(=O)C3CCCC3)C2=O)c1` (centres undefined), the ED50 with Rattus norvegicus [1] came out at 0.0189 µmol/kg. Also, the values for the 50% inhibitory concentration (IC50) in test [2] and in test [3] were 2600 nM and 0.12 nM, respectively.
In turn, `Cc1cccc(NC(=O)NC2N=C(c3ncc[nH]3)c3ccccc3N(CC(=O)C(C)(C)C)C2=O)c1` (centres undefined) showed an inhibition in vivo at 0.1 µmol/kg in the test with Rattus norvegicus [4] of 14%. Moreover, the IC50 in test [2] came to 2610 nM; in test [3] it was 8 nM.
Regarding `Cc1cccc(NC(=O)NC2N=C(c3ccccc3)c3ccccc3N(CC(=O)C(C)(C)C)C2=O)c1` (centres undefined), the IC50 in test [2] was 111 nM.
The compound `Cc1cccc(NC(=O)NC2N=C(c3cnc[nH]3)c3ccccc3N(CC(=O)C(C)(C)C)C2=O)c1` (centres undefined) registered an inhibition in vivo at 0.1 µmol/kg in the test on Rattus norvegicus [4] of 25%. Also, the figures for the IC50 in test [2] and in test [3] were 232 nM and 26.1 nM, respectively.
For the compound `Cc1cccc(NCNC2N=C(c3nccs3)c3ccccc3N(CC(=O)C(C)(C)C)C2=O)c1` (centres undefined), the inhibition in vivo at 0.1 µmol/kg with Rattus norvegicus [4] was found to be 58%. The half-inhibitory concentration (IC50) worked out at 433 nM in test [2] and 0.8 nM in test [3].
The like results for `Cc1cccc(NC(=O)NC2N=C(c3ccncc3)c3ccccc3N(CC(=O)c3ccccc3C)C2=O)c1` (centres undefined) were, in that order, 37%, 670 nM and 18 nM.
